Reference: article PMC3488005, “A yeast expression system for functional and pharmacological studies of the malaria parasite Ca^2+/H^+ antiporter” (Malaria Journal, 2012)

Experiments:
Vcx1p (VCX1) = molecular target: T1, Vcx1p (VCX1) (Saccharomyces cerevisiae, UniProt Q99385); experiment: whole-cell apoaequorin luminescence of cytosolic Ca2+ (AUC […]-16 s), 96-well; type: cell-based; details: read-out: concentrations at which their transport was inhibited by 50%
T1 construct: full-length gene (1236 bp) in pGREG505 (GAL1 promoter), re-expressed in S. cerevisiae vcx1 knock-out (Y03825); apoaequorin co-expressed as reporter
T1 sequence (Q99385 1-411): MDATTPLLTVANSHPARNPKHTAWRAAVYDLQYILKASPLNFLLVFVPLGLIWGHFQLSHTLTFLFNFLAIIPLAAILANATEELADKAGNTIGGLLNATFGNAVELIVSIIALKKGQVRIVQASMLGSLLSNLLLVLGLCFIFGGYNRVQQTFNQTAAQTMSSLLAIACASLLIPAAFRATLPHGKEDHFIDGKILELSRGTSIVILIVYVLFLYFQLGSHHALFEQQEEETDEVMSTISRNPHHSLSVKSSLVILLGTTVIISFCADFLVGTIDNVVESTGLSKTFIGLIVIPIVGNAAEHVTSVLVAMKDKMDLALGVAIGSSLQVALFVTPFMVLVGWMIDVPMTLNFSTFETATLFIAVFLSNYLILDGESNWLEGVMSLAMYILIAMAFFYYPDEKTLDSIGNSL

PfCHA = molecular target: T2, PfCHA (Plasmodium falciparum, UniProt C6KSN3); experiment: as above; type: cell-based
T2 construct: gene PF3D7_0603500; full-length ORF (about 1321 bp, approx. 49 kDa) in pGREG505 (GAL1 promoter), expressed in S. cerevisiae vcx1 knock-out (Y03825), vacuole membrane; apoaequorin co-expressed as reporter
T2 sequence (C6KSN3 1-441): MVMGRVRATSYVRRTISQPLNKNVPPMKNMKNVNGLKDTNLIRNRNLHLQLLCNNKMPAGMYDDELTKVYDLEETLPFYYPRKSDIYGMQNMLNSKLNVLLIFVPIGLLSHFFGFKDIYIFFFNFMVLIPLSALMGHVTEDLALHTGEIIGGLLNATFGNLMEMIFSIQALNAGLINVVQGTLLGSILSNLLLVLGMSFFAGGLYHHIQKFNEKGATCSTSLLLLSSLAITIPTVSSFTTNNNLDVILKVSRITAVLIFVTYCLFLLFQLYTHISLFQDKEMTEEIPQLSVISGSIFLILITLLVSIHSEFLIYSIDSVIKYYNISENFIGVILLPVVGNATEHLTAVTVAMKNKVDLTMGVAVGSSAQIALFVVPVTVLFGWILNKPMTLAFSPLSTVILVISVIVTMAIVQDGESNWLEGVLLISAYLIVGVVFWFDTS

`N=C(N)SCCc1ccc(OCc2ccc([N+](=O)[O-])cc2)cc1` [KB-R7943] gave an IC50 (Vcx1p (VCX1)) of 12.5 µM and an IC50 (PfCHA) of 17.5 µM.
